Where two headings read alike, the source gives them in different places.
Experiments:
CCK-A = target: T1, CCK-A (Rattus norvegicus, UniProt P30551); assay: Peripheral receptor (CCK-A) binding experiment, [^3 H]-CCK-8 binding inhibition; conditions: for CCK-B/CCK-A: ratio of IC50 values CCK-B/CCK-A (selectivity for CCK-A), 60 min
T1 construct: CCK-A receptors prepared from the cell membranes of rat pancreas; from tissue; host or cells: rat pancreas membranes (male rats, Japan Laboratory Animals)
T1 sequence (P30551 1-444): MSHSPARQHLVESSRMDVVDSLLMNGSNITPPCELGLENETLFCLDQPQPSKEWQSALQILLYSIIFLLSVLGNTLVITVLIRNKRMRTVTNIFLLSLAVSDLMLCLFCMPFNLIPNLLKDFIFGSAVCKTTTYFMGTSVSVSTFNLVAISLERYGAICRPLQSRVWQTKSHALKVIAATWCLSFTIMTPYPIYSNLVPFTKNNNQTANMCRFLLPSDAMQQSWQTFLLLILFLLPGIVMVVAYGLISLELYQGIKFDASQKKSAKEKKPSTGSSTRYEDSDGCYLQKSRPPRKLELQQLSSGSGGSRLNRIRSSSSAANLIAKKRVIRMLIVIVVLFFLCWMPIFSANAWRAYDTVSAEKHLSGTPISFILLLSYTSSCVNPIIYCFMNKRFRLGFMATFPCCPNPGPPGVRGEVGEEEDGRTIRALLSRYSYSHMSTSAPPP
Procedure: (§1) Peripheral Receptor (CCK-A) and Central Receptor (CCK-B) Binding Experiment
(§2) The pancreas and cerebrum of male rats (Japan Laboratory Animals), which were sacrificed by decapitation and having body weights of 250-300 g, were extracted and immersed in cold Hepes buffer. After suspending these tissues using a Potter homogenizer, the suspension was centrifuged for 10 minutes at 48,000×g. The resulting residue was again suspended by addition of cold Hepes buffer and centrifuged for 10 minutes at 48,000×g. The resulting residue was transferred to cold incubation buffer.
(§3) A 1 ml aliquot of the homogenate was incubated for 60 minutes at 25° C. in the presence of 0.2 nM [^3 H]-CCK-8 and the test compound, in the presence of vehicle only (for measurement of 100% binding), or in the presence of 1 μM cold CCK-8 (for measurement of non-specific binding). Next, the reaction solution was promptly suction filtered using a Whatman glass GF/B filter immersed in Hepes buffer followed by washing the filter with cold Hepes buffer. Next, the glass filter was placed in Aquasol-2 followed by assay of radioactivity with a liquid scintillation counter.
(§4) The compound numbers shown in Table 3 indicate the target compounds according to the number of the embodiment.

CCK-B = target: T2, CCK-B (Rattus norvegicus, UniProt P30553); assay: Central receptor (CCK-B) binding experiment, [^3 H]-CCK-8 binding inhibition; conditions: rat cerebrum homogenate, 0.2 nM [^3 H]-CCK-8, 60 minutes at 25° C
T2 construct: CCK-B receptors originating in the cell membrane of rat brain cells; from tissue; host or cells: rat cerebrum membranes (male rats, Japan Laboratory Animals)
T2 sequence (P30553 1-452): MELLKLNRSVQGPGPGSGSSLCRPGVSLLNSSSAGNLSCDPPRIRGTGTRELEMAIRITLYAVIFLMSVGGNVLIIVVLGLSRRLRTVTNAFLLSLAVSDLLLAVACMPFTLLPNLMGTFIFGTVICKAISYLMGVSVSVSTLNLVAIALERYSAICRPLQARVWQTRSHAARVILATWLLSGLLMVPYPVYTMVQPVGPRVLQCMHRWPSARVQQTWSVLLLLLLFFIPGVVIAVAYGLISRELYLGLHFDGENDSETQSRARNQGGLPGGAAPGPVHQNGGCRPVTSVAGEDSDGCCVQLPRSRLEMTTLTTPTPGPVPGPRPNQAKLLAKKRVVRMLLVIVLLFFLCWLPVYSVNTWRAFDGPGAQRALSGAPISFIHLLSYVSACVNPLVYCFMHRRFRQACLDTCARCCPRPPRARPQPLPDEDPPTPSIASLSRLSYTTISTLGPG
Procedure: as §1, §2, §3, §4

[1] = system: extracted guinea pig ileum; assay: Anti-CCK action in extracted guinea pig ileum (inhibition of CCK-8-induced contraction, Magnus tube); design: species or system guinea pig (Hartley strain, male); conditions: Cavia porcellus; contraction by 1×10^-8 M CCK-8, test compound added 5 minutes before; extracted ileum, 37° C; read-out: Active IC50
Procedure: Anti-cholecystokinin (CCK) Action in Extracted Guinea Pig Ileum After sacrificing a male guinea pig (Hartley strain) by striking and exsanguination, a piece of extracted ileum was suspended from a Magnus tube, while applying tension of 0.5 g, containing 30 ml of Tyrode's solution (NaCl 136.9 mM, KCl 2.68 mM, CaCl2 1.8 mM, MgCl2 1.05 mM, NaH2 PO4 0.42 mM, NaHCO3 11.9 mM and glucose 5.55 mM) and ventilated with mixed O2 gas containing 5% CO2 at 37° C. Changes in contraction were recorded on smoked paper for isotonicity via a bevel. The piece of ileum was allowed to stand undisturbed for 30 minutes and then contracted by addition 1×10^-8 M CCK-8. After washing, this was repeated several times. After the contraction by CCK-8 had stabilized, the test compound was added. Contraction resulting from addition of 1×10^-8 M CCK was then measured 5 minutes later. The contraction caused by CCK-8 and the contraction caused by CCK-8 in the presence of the test compound at varying concentrations were compared, and the resulting IC50 values (concentration of test substance at which contraction caused by CCK-8 is inhibited by 50%) are shown in Table 2. The compound numbers shown in Table 2 indicate the target compounds according to the numbers of the embodiments.

[2] = rat pancreas homogenate, 0.2 nM [^3 H]-CCK-8, 60 minutes at 25° C, read-out: CCK-A IC50
[3] = rat pancreas cell membranes, read-out: activity in binding experiment on CCK-A receptors prepared from the cell membranes of rat pancreas

IC50 (CCK-A; [2]) [µM]	CCK-B/CCK-A (CCK-A)	IC50 (CCK-B) [µM]	IC50 (CCK-A; [3]) [µM]	SMILES	IC50 [1] [µM]
0.14	179	25		O=C(N[C@@H](CCCn1nnc(C(=O)O)c1C(=O)O)C(=O)N1CCN(C(c2ccccc2)c2ccccc2)CC1)c1cc2ccccc2[nH]1 [Compound 23-6, (S)-1-[5-(4,5-dicarboxy-1,2,3-triazol-1-yl)-2-(indol-2-yl)carbonylamino]valeryl-4-diphenylmethylpiperazine]	
0.07	43	3		O=C(N[C@@H](CCCn1nncc1C(=O)O)C(=O)N1CCN(C(c2ccccc2)c2ccccc2)CC1)c1cc2ccccc2[nH]1 [Compound 28-3, (S)-1-[5-(5-carboxy-1,2,3-triazol-1-yl)-2-(indol-2-yl)carbonylamino]valeryl-4-diphenylmethylpiperazine]	
0.0043	13256	57	0.0043	O=C(N[C@@H](CSc1ncccc1C(=O)O)C(=O)N1CCC(C(c2ccccc2)c2ccccc2)CC1)c1cc2ccccc2[nH]1 [Compound 2-6, (R)-4-diphenylmethyl-1-[3-(3-carboxypyridin-2-yl)thio-2-(indol-2-yl)carbonylamino)propionylpiperidine]	0.06
0.18	53	9.6		O=C(N[C@@H](Cc1ocnc1C(=O)O)C(=O)N1CCN(C(c2ccccc2)c2ccccc2)CC1)c1cc2ccccc2[nH]1 [Compound 27-5, (S)-1-[3-(4-carboxyoxazol-5-yl)-2-(indol-2-yl)carbonylamino]propionyl-4-diphenylmethylpiperazine]	0.19
0.05	1140	57		O=C(N[C@@H](CSc1ncccc1C(=O)O)C(=O)N1CCN(C(c2ccccn2)c2ccccn2)CC1)c1cc2ccccc2[nH]1 [Compound 8-5, (R)-4-bis(2-pyridyl)methyl-1-[3-(3-carboxypyridin-2-yl)thio-2-(indol-2-yl)carbonylamino]propionylpiperazine]	0.35
0.21	29	6		O=C(N[C@@H](CSc1ccccc1C(=O)O)C(=O)N1CCN(C(c2ccccc2)c2ccccc2)CC1)c1cc2ccccc2[nH]1 [Compound 9-3, (R)-1-[3-(2-carboxyphenyl)thio-2-(indol-2-yl)carbonylamino]propionyl-4-diphenylmethylpiperazine]	
0.21	57	12		O=C(N[C@@H](CCSc1ncccc1C(=O)O)C(=O)N1CCN(C(c2ccccc2)c2ccccc2)CC1)c1cc2ccccc2[nH]1 [Compound 25-7, (S)-1-[4-(3-carboxypyridin-2-yl)thio-2-(indol-2-yl)carbonylamino]butyryl-4-diphenylmethylpiperazine]	
1.5	17	26		O=C(O)c1cn(CCC[C@H](NC(=O)c2cc3ccccc3[nH]2)C(=O)N2CCN(C(c3ccccc3)c3ccccc3)CC2)nn1 [Compound 29-2, (S)-1-[5-(4-carboxy-1,2,3-triazol-1-yl)-2-(indol-2-yl)carboxyamino]valeryl-4-diphenylmethylpiperazine]	

More lines, now with the values behind:

SMILES	IC50 (CCK-A; [2]) [µM]	CCK-B/CCK-A (CCK-A)	IC50 (CCK-B) [µM]	IC50 (CCK-A; [3]) [µM]	IC50 [1] [µM]
CC(C)C(C(C)C)N1CCN(C(=O)[C@H](CSc2ncccc2C(=O)O)NC(=O)c2cc3ccccc3[nH]2)CC1 [Compound 15-4, (R)-1-[3-(3-carboxypyridin-2-yl)thio-2-(indol-2-yl)carbonylamino]propionyl-4-diisopropylmethylpiperazine]	0.03	293	8.8		0.12
O=C(N[C@@H](CSc1ncccc1C(=O)O)C(=O)N1CCN(C(c2ccc(F)cc2)c2ccc(F)cc2)CC1)c1cc2ccccc2[nH]1 [Compound 10-4, (R)-4-bis(4-fluorophenyl)methyl-1-[3-(3-carboxypyridin-2-yl)thio-2-(indol-2-yl)carbonylamino]propionylpiperazine]	0.006	6000	36	0.006	0.048
O=C(N[C@@H](CSc1ncccc1C(=O)O)C(=O)N1CCC(C(c2ccccc2)c2ccccc2)CC1)c1cc2cc(Cl)ccc2[nH]1 [Compound 20-2, (R)-1-[3-(3-carboxypyridin-2-yl)thio-2-(5-chloroindol-2-yl)carbonylamino]propionyl-4-diphenylmethylpiperidine]	0.06	> 16667	> 1000		
COc1ccc2[nH]c(C(=O)N[C@@H](CSc3ncccc3C(=O)O)C(=O)N3CCC(C(c4ccccc4)c4ccccc4)CC3)cc2c1 [Compound 21-2, (R)-1-[3-(3-carboxypyridin-2-yl)thio-2-(5-methoxyindol-2-yl)carbonylamino]propionyl-4-diphenylmethylpiperidine]	0.013	130770	1700		
O=C(N[C@@H](Cn1nnc(C(=O)O)c1C(=O)O)C(=O)N1CCN(C(c2ccccc2)c2ccccc2)CC1)c1cc2ccccc2[nH]1 [Compound 31-3, (S)-1-[3-(4,5-dicarboxy-1,2,3-triazol-1-yl)-2-(indol-2-yl)carbonylamino]propionyl-4-diphenylmethylpiperazine]					0.032
O=C(N[C@@H](CSc1ncccc1C(=O)O)C(=O)N1CCN(C2c3ccccc3CCc3ccccc32)CC1)c1cc2ccccc2[nH]1 [Compound 19-5, (R)-1-[3-(3-carboxypyridin-2-yl)thio-2-(indol-2-yl)carbonylamino]propionyl-4-(10,11-dihydro-5H-dibenzo[a,d]cyclohepten-5-yl)piperazine]	0.009	7111	64	0.009	
O=C(N[C@@H](Cn1nncc1C(=O)O)C(=O)N1CCN(C(c2ccccc2)c2ccccc2)CC1)c1cc2ccccc2[nH]1 [Compound 32-2, (S)-4-diphenylmethyl-1-[3-(5-carboxy-1,2,3-triazol-1-yl)-2-(indol-2-yl)carbonylamino]propionylpiperazine]					0.036
COc1ccc(C(c2ccc(OC)cc2)N2CCN(C(=O)[C@H](CSc3ncccc3C(=O)O)NC(=O)c3cc4ccccc4[nH]3)CC2)cc1 [Compound 7-4, (R)-4-bis(4-methoxyphenyl)methyl-1-[3-(3-carboxypyridin-2-yl)thio-2-(indol-2-yl)carbonylamino]propionylpiperazine]	0.8	76	61		
